A melting point compilation (Tetko et al.; mined from patent text by program, amines drawn as free bases though some values may be those of a salt)

melting point [°C] | SMILES
223 to 224 | COc1cc(C(=O)N(C2CCCC2)C2CCCC2)ccc1Cn1cccc2ncnc1-2
56 to 58 | CCOC(=O)CCCCc1cn(-c2cccnc2)c2ccccc12
75 to 77 | CC(C)(C)C1=NN=C(N)SC1
128 to 130 | CC(=O)N[C@@H](CS)C(=O)NCCSC(=O)c1ccccc1
150 | Cc1cc(N)c([N+](=O)[O-])cc1NCC(O)CO (configuration not stated)
89 to 91 | COc1ccc(CNC(=O)[C@@H](NC(=O)[C@H](NCc2ccc(N(C)C)cc2)[C@H](O)[C@H](Cc2ccccc2)NC(=O)OC(C)(C)C)C(C)C)c(O)c1
137 to 138 | C/C(=N\OCCN1CCOCC1)[C@H]1CC[C@H]2[C@@H]3CC=C4C[C@@H](O)CC[C@]4(C)[C@H]3CC[C@]12C
164 to 165 | CC(CN1CCC(c2noc3cc(F)ccc23)CC1)N1Cc2ccccc2C1 (configuration not stated)
105 | BrCCCCCCCCCCCCCCCCCCCCCCCCBr
103 to 104 | CCOC(=O)c1cc(Cl)cnc1NC(=O)Cc1cccc(Oc2ccccc2)c1
64 to 65 | O=C(CCc1ccccc1)CN1C(=O)CC1S(=O)CCO (configuration not stated)
310 to 312 | NS(=O)(=O)c1ccc(-c2[nH]c3ccc(Br)cc3c2-c2ccccc2)cc1
151 to 153 | NC(=O)N1CCN(c2nn(-c3ccccc3)c3ccccc23)CC1
106 to 108 | COC(=O)C1=C(C)NC(C)=C(C(=O)OCCN2CCN(Cc3ccccc3)CC2)C1c1cccc([N+](=O)[O-])c1 (configuration not stated)
223 to 225 | CS(=O)(=O)c1ccc(Cn2ccc(OCc3ccc(F)cc3F)c(Cl)c2=O)cc1
122 to 124 | CC(C)(C)NC(=O)[C@@H]1[C@@H](O)CCN1C(=O)OC(C)(C)C
129 to 131 | Cc1ccc(C=CC(=O)NCCCCN2CCN(C(c3ccccc3)c3ccccc3)CC2)cn1
100 to 101 | C=C(CCC(C)C1CCC2C3=C(C(=O)CC21C)C1(C)CCC(=O)C(C)C1CC3O)C(C)C(=O)OC (configuration not stated)
304 to 305 | Cc1[nH]c(C)c(-c2ccc(Oc3ccc(C(F)(F)F)cc3)cc2)c(=O)c1Br
99 to 102 | CC(C=O)=Cc1cc([N+](=O)[O-])ccc1Cl
66.2 to 67.1 | C=CCOC(=O)CCC(NC(=O)OCC1c2ccccc2-c2ccccc21)C(=O)OCc1ccccc1 (configuration not stated)
198 | N#CCN1CCC(=C2c3cc(F)ccc3CCn3ccnc32)CC1
104 | CC(=O)c1cc(-c2ccc(C)cc2)c(OCc2ccccc2)c(C(C)(C)C)c1
178 to 181 | C#CCN(Cc1cc2c(=O)[nH]c(COS(C)(=O)=O)nc2cc1Cl)c1ccc(C(=O)OC(C)(C)C)cc1

melting point [°C] | SMILES
176 to 179 | Nc1ccc(C(=O)N2CCCCc3sccc32)c(Cl)c1
158 to 160 | CC(=O)OC1CCC2(C)C(CCC3=C4C(=O)CC(C(C)CCCOS(=O)(=O)c5ccc(C)cc5)C4(C)CCC32)C1 (configuration not stated)
145 to 148 | CCCCCC(O)/C=C/n1ccnc1 (configuration not stated)
96 to 97 | CC12CCC(C(=O)N(CCCCN3CCN(c4ccccn4)CC3)C1=O)C2(C)C (configuration not stated)
180 to 182 | O=C(O)C1CCc2c(c3ccccc3n2C(=O)c2ccc(F)cc2)C1 (configuration not stated)
205 to 207 | O=C(NC(Cc1cccc(C(F)(F)F)c1)C(=O)N1CCSC1)c1cc2cc(Cl)ccc2[nH]1 (configuration not stated)
265 | Cc1nc(NC(=O)c2cnn3c(C(F)(F)F)cc(-c4ccc(Cl)c(Cl)c4)nc23)sc1S(=O)(=O)NC(C)(C)CO
96 to 97 | C=CCNc1nc(NCC)c2scc(C)c2n1
228 to 230 | O=C(O)Cc1cc(-c2ccc(Cl)cc2)n(-c2ccc(OCc3ccc4ccccc4n3)cc2)n1
258 to 260 | COc1ccc2c(c1)c1c(n2C(=O)c2ccc(F)cc2)CCC(C(=O)O)C1 (configuration not stated)
247 to 249 | O=C(OCc1ccccc1)N1CCN(c2cc(=O)[nH]cn2)CC1
203 to 205 | Cc1c(NCCCN2CCN(c3ccccc3O)CC2)n(C)c(=O)n(C)c1=O
190 to 191 | CC1CCN(c2ccnc(NC(=O)NCc3ccccn3)c2)C1=O (configuration not stated)
140 to 146 | Cc1noc(NS(=O)(=O)c2ccccc2-c2ccc(-c3ncco3)cc2Cn2cccn2)c1C
100 | Cc1cc(-n2ccnc2)c2cccc(OCc3c(Cl)ccc(S(=O)(=O)N4CCC(CO)CC4)c3Cl)c2n1
102 to 103 | O=C(CCC(=O)N1CCC(c2ccc(Cl)cc2)CC1)c1ccc2c(c1)CN(Cc1ccccc1)CC2
118 to 120 | CN1CCN(C(=O)Nc2cc(Br)ccc2N2CCc3cc(Br)ccc32)CC1
220 to 225 | Nc1nc(-c2ccc(CCN3CCN(c4cccc5cc(F)ccc45)CC3)cc2)cs1
169 to 170 | CCCc1nc(I)c(CO)[nH]1
88 to 90 | O=C(C(=O)N1CCCCC1)N1CCCCC1
158 to 160 | COc1ccc(N)c(-c2ccc3cc(OC)c(OC)cc3c2)c1
> 300 | Cc1c(O)nc2ccccc2c1C(=O)O
179 to 182 | C=C(c1c(C)n(CC)c2ccccc12)c1c(C)n(CC)c2ccccc12
198 to 200 | Cc1ccc(CO)cc1NC(=O)c1cccc([N+](=O)[O-])c1

melting point [°C] | SMILES
95 to 97 | COc1cccc(CC(=O)O)c1OCCCc1cn(-c2cccc(C(F)(F)F)n2)nc1C(C)C
153 to 155 | CCOC(=O)CNCc1cccc(-c2c(CC(=O)Nc3ccc(F)cc3C(F)(F)F)c(=O)oc3cc(Cl)c(C)cc23)c1
149 to 155 | CC1CCC(N(CC2CCC(CN(C(=O)Nc3ccc(N4CCCC4)cc3)C3CCC(C)CC3)CC2)C(=O)Nc2ccc(N3CCCC3)cc2)CC1 (configuration not stated)
128 | COC(=S)c1cc(F)c(-c2ccccc2)nc1Nc1ccc(F)cc1F
133 to 135 | COc1ccc(S(=O)(=O)NC(C)c2cc(F)ccc2-c2ccccc2F)cc1 (configuration not stated)
79 to 82 | CC(=O)c1ncccc1C(O)=NNC(=O)Nc1cc(F)cc(F)c1
129 to 131 | O=C(NCCC1=CCCCC1)NCCC1=CCCCC1
225 to 228 | Cc1nc[nH]c1CSCCNC(=O)NCCSCc1[nH]cnc1C
131 to 133 | CC(=O)Nc1c(C(=O)c2ccccc2)[nH]c2cccc(F)c12
79 to 80 | CCCCC(C)n1ncc(-c2ccc(S(C)(=O)=O)cc2)c(-c2ccc(F)cc2)c1=O (configuration not stated)
95 to 97 | COC(=O)c1c(F)cc(OCCNC(=O)OCc2ccccc2)cc1F
152 to 153 | Cc1c(O)c(C)c2c(C)cn(C(=O)C(C)(C)C)c2c1C
184 to 185 | O=C1NCCN1c1ccc(S(=O)(=O)Nc2cccc(Br)c2)cc1
110 | O=C(Cc1cccc(OCCCN(Cc2cccc(C(F)(F)F)c2Cl)CC(c2ccccc2)c2ccccc2)c1)NS(=O)(=O)c1ccccc1
97 to 99 | COC(=O)c1cccc(Oc2ccc([N+](=O)[O-])cc2C(=O)OC)c1
120 to 123 | COC(=O)c1c(Cl)cc(Cl)cc1NC(=O)CSc1ccc(NS(=O)(=O)c2ccc(Cl)cc2)cc1
202 to 204 | O=C(O)CC1c2cc(C(F)(F)F)ccc2C(=O)N1CC(F)(F)F (racemic)
258 to 263 | N#Cc1ccc(-c2cn(-c3ccc(C#N)cc3)cn2)cc1
195 to 196 | COC(=O)Cc1cc2ccc(OC)cc2[nH]c1=O
198 | O=C(CC1CC1)N[C@H]1CC[C@H](CCN2CCN(c3nccc4c3OCC4)CC2)CC1
84 to 86 | CCOC(=O)Cc1cc(O)ccc1CCc1cc2cc(C#N)ccc2o1
> 300 | Cn1cnc2c(=O)[nH]c(N)nc21
> 270 | N#Cc1cc2ccccc2n1-c1ccc(CO)cc1
130 to 132 | CCCCNC(=S)Nc1ccc(NNC=O)c(OC)c1

melting point [°C] | SMILES
140 | CC(C(=O)Nc1ccc(C(=O)c2cccs2)cc1)c1ccccc1 (configuration not stated)
202 | CCCCn1c(=O)cnn(-c2ccc(N3CCN(c4ccc(O)cc4)CC3)cc2)c1=O
140 to 141 | Cn1ncc2c1-c1c(Sc3ccccc3)sc(C(N)=O)c1CC2
105 to 107 | Fc1cc2cc[nH]c2cc1Cl
271 to 278 | Cc1cccc(Cc2ccc(-c3cnn4c(O)ncnc34)cc2)c1
123 to 124 | O=C1C(CCO)Oc2cc(F)ccc2N1Cc1ccccc1[N+](=O)[O-] (configuration not stated)
139 to 140 | FC(F)(F)c1cccc(-c2ccnc(Nc3ccc4c(c3)OCCO4)c2)c1
137 to 140 | COC[C@H]1CCCN1C(=O)c1cc(-c2ccccc2)c(=O)n2ccc3ccc(Cl)cc3c12
111 to 114 | O=C(OCC1OC(n2ccc(=O)[nH]c2=O)C(O)C1OC(=O)c1ccccc1)c1ccccc1 (configuration not stated)
130 | CCCCOc1ccc(C(=O)NC[C@@H](C(=O)NO)N2CCN(S(C)(=O)=O)CC2)cc1
84 to 86 | CCCCCCCCCCCCC(=O)CC
129 to 130 | Cc1nc(-c2ccccc2)c(CC(C)(C)C(=O)O)o1
184 to 188 | CC(C)NC(=O)Nc1nc2nc(N)ncc2cc1-c1c(Cl)cccc1Cl
79 | N#CCCCC(=O)c1cc2ccccc2o1
79 to 80 | CC(CCCCO)Oc1c(I)cc(I)cc1I (configuration not stated)
77 to 78 | CCOC(=O)c1c(N)c(Cl)cc2c1OCO2
153 to 155 | COc1ccc2c(c1)c(Cc1cc(=O)n(C3CCCC3)[nH]1)c(C)n2C(=O)c1ccc(Cl)cc1
160 | CC(=O)OCCn1nc(C)c(-c2ccc3c(c2)NC(=O)CO3)c1-c1ccc(F)cc1
215 to 219 | CCOC(=O)c1c(Cl)nc2ccc(OC)cc2c1CCl
138 to 141 | CCOC(=O)C(=O)Nc1ccc(C(=O)NC2CCN(C3CCCCC3)C2)cc1 (configuration not stated)
280 to 284 | CC(=O)Nc1cc2c3c(cccc3c1N1CCCC1)C(=O)N(O)C2=O

SMILES | melting point [°C]
O=C1NCN(c2ccccc2)C12CCN(CC1=Cc3ccccc3CC1)CC2 | 205 to 206
Cc1cccc(N=C2NCCN2)c1C | 141 to 144
COc1cc(C(=O)P2(=O)Oc3ccccc3-c3ccccc32)cc(OC)c1OC (configuration not stated) | 147 to 149
O=C(c1cc2cc(O)ccc2[nH]1)C12CC3CC(CC(C3)C1)C2 | 197 to 199
